Where two headings read alike, the source gives them in different places.
Columns and labels:
[1] = PK study, plasma and thighs; assay type: in vivo, mice; conditions: mouse; for Cmax at 4 h: sc, single subcutaneous dose 25 mg·kg^−1; for Cmax at 4 h / concentration at 8 h: mice
Experimental: Pharmacokinetics of Compound 4 and In Vivo Efficacy. We next evaluated the pharmacokinetics (PK) of compound 4 and its distribution to the thighs (sites of infection in the disease model) after a single subcutaneous dose at 25 mg·kg^−1 to mice.
Animals. Outbred 8-week-old female ICR mice for PK and neutropenic thigh infection studies were purchased from Envigo, Indianapolis, IN. The average weight of the mice for the PK study was 30 g (range 26.1 to 33.1 g); mice in the neutropenic thigh infection weights ranged from 24.2 to 37.7 g and were on average 29 g at the initiation of the study. Mice were housed in polycarbonate shoebox cages (for the PK study) or in disposable cages (for the infection studies) with ¼-inch corncob (The Andersons Inc., Maumee, OH) and Alpha-Dri (Shepherd Specialty Papers, Inc., Richland, MI) bedding with a 12-h light/dark cycle at 72° F. The animals were given food (Teklad 2918 irradiated extruded rodent diet) and water ad libitum. The food and water were autoclaved for the infection studies. All procedures were performed in accordance with and approved by the University of Notre Dame Institutional Animal Care and Use Committee.
PK study. Mice (n=15) were given a single subcutaneous dose of compound 4 at 25 mg·kg^−1 (100 μL of 7.5 mg-mL-1 solution in 20% DMSO/20% Tween-80/60% sterilized water). At 0.5, 1, 2, 4, and 8 h, mice were euthanized. Terminal blood was collected by cardiac puncture into heparinized (sodium heparin, Sigma-Aldrich, St. Louis, MO) syringes, and centrifuged (20,000×g at 4° C. for 15 min) to obtain plasma. A 60-μL aliquot of plasma was mixed with 60 μL of a 10 μg·mL^−1 solution of internal standard in acetonitrile. After centrifugation (17,000×g for 10 min), a 60-μL of the supernatant was taken for ultraperformance liquid chromatography (UPLC) analysis with UV detection.
Thighs were excised, weighed, and mixed with 100 μL of 10 μg·mL^−1 of internal standard in acetonitrile. Acetonitrile (900 μL) was added, and the mixture was homogenized on a Bullet blender (Next Advance, Inc., Averill Park, NY). After centrifugation at 17,000×g for 10 min, the supernatant was collected. The extraction was repeated two additional times. The combined supernatants were concentrated on a speed vac. The residue was dissolved in 100 μL of acetonitrile, and the mixture was centrifuged. A 60-μL aliquot of the supernatant was placed in an autosampler vial.
Plasma and thigh samples were analyzed on a Waters Acquity UPLC (Waters Corp., Milford, MA) coupled with a diode array detector with UV detection at 320-330 nm. A C18 Atlantis™ T3 column 2.1 i.d.×100 mm length 3 μm-particle size column was used at a flow rate of 0.5 mL/min. The gradient consisted of 0.5-min from 80% A/20% B to 65% A/35% B, 4.5-min to 25% A/75% B, 0.5-min to 65% A/35% B, 2-min to 80% A/20% B, where A=0.1% formic acid in water and B=0.1% formic acid in acetonitrile. Internal standard and compound 4 eluted at 4.2 and 4.6 min, respectively.
Calibration curves containing known concentrations of compound 4 (ranging from 0 to 200 μg·g^−1 tissue for thighs or 0 to 40 μg·mL^−1 for plasma) and internal standard in blank control thigh tissue or control plasma were prepared. Concentrations in the thighs and plasma were determined from the calibration curve regression parameters relative to internal standard.

MSSA and MRSA strains = test: MIC potentiation, groups of strains; assay type: cell-based, Staphylococcus aureus; conditions: all 40 tested strains
Experimental: Potentiation of Activities of/36-Lactam Antibiotics. Compound 4 was evaluated as an adjuvant for β-lactam antibiotics, per design principles.
MICs were determined by the microdilution broth method following the Clinical & Laboratory Standards Institute (CLSI) guidelines. […] Experiments were performed in triplicate in 96-well plates with 5×10^5 CFU·mL^−1 of bacteria. […] The MIC was the concentration for which bacterial growth was not observed.

[2] = tested on: S. aureus NRS144pCN52RI-Venus; test: Bacterial growth inhibition (OD600) in the fluorescent screening assay; assay type: cell-based, Staphylococcus aureus; conditions: compound at 100 mg/L^−1; OD600 after 2 h
Experimental: The collection of the 100 compounds from the in-silico search was screened against S. aureus NRS144pCN52RI-Venus. The screening strategy was as follows. Bacteria grown to OD600 of 0.25 were exposed concurrently to CBAP (10 mg·L^−1) and the test compound (100 mg·L^−1). Fluorescence was recorded after two hours of incubation. OD600 values were also recorded to identify compounds with inherent antibacterial activity. Compound 1 (Chart 1) emerged—82% diminished fluorescence as an indication of the extent of BlaR inhibition—as a suitable template for structure elaboration. This effort led to the synthesis of several dozen benzimidazole and imidazole compounds. The progression of the iterative design is depicted in Chart 1 for four compounds, culminating in 4. […] The X-ray structures for the complexes of compounds 2 (non-covalent) and 4 (covalent) with the BlaR sensor domain are shown respectively in FIG. 2b (2.0 Å resolution) and FIG. 2c (1.97 Å resolution). Compound 4 makes a covalent bond with the catalytic Ser389 and creates a network of hydrogen bonds with the BlaR active site (FIG. 2c).
Fluorescent assay for screening of BlaR potential inhibitors. A 3-mL portion of lysogeny broth (LB) medium was inoculated with NRS144pCN52RI Venus from frozen stocks and grown overnight at 37° C. The overnight culture was then diluted 1:150 fold with fresh LB containing […] of erythromycin and incubated at 37° C. to an OD600 of 0.3, at which point fluorescence was induced by the addition of CBAP to a final concentration of 10 μg·mL^−1. The culture was aliquoted (99 L) into 96-well plate and 1 L of inhibitor solution (1 mg·mL^−1 in DMSO) was added to each well. Negative control (DMSO without CBAP) and positive control (CBAP without inhibitor) were included. The plate was incubated at 30° C. for 2 h with intermittent shaking. Fluorescence and OD600 measurements were taken by a Cytation-5 multimode microplate reader. Percent inhibition of BlaR and bacterial growth were calculated using absorbance unit (AU) and OD600 values of each sample entered into this formula: […]

Compound: N#Cc1ccc2nc(SCB(O)O)n(Cc3ccc(C(F)(F)F)cc3C(F)(F)F)c2c1 [Compound 4, (((1-(2,4-bis(trifluoro-methyl)benzyl)-6-cyano-1H-benzo[d]imidazol-2-yl)thio)methyl)boronic acid]
- Tmax ([1]; plasma and thigh, plasma and thighs, 25 mg·kg^−1 sc, read-out: time at which maximum concentrations were achieved): 4 h
- Cmax at 4 h ([1]; plasma, read-out: Maximum concentration in plasma): 8500 ng/mL
- concentration at 8 h ([1]; plasma, 25 mg·kg^−1 sc, read-out: concentration at 8 h in plasma): 3900 ng/mL
- Cmax at 4 h ([1]; thigh, read-out: Maximum concentration in thighs): 28000 ng/mL
- concentration at 8 h ([1]; thigh, 25 mg·kg^−1 sc, read-out: concentration at 8 h in thighs): 20000 ng/mL
- potentiation of the activity of MEM by 4 (MSSA and MRSA strains): lowering MICs to below resistant level
- % Inhibition of bacterial growth [2]: 25%

— US20260284011A1, “COMPOUNDS FOR RESTORING SUSCEPTIBILITY TO BETA-LACTAM ANTIBIOTICS” (UNIVERSITY OF NOTRE DAME DU LAC, priority 2023, published 2026)
